From ChEMBL document CHEMBL1275276, “Analysis of physico-chemical properties of substrates of ABC and MFS multidrug transporters of pathogenic Candida albicans” (2010)
Activity calls are given as the source filed them. No rule for the calls is given here. Numbered stars: 1 amine (or outer) side, 2 acyl side, 3 side chain; on linkers, the order of the positions; unused ones are H or OH. Bridge positions count the residues as written; N and C are the ends. Square brackets hold non-standard residues; d marks the D form. Peptide text beside a SMILES is read from it. I, II: the chains in the order shown. Actinocin(1to9) = Cc1c2oc3c(C)ccc(C(=O)[*:2])c3nc-2c(C(=O)[*:1])c(N)c1=O; NMeV = CN[C@H](C(=O)O)C(C)C; Sar = CNCC(=O)O

Experiments:
Candida albicans [1] = assay: Binding affinity to Candida albicans CaCdr1p expressed in yeast AD1-8u
Saccharomyces cerevisiae [2] = assay: Antifungal activity against yeast AD1-8u expressing Candida albicans CaMdr1p by agar disk diffusion assay; type: functional; also: test concentration or dose not given here
Candida albicans [3] = assay: Binding affinity to Candida albicans CaMdr1p expressed in yeast AD1-8u
Saccharomyces cerevisiae [4] = assay: Antifungal activity against yeast AD1-8u expressing Candida albicans CaCdr1p by agar disk diffusion assay; type: functional
For IZ in this document: test concentration or dose not given here.

| Structure (SMILES) | Activity (Candida albicans [1]) | inhibition zone (IZ) (Saccharomyces cerevisiae [2]) [cm] | Activity (Candida albicans [3]) | inhibition zone (IZ) (Saccharomyces cerevisiae [4]) [cm] |
| --- | --- | --- | --- | --- |
| CC/N=c1\cc2oc3cc(NCC)c(C)cc3c(-c3ccccc3C(=O)OCC)c-2cc1C.Cl [RHODAMINE 6G HYDROCHLORIDE] | Active | 0.2 | inactive | 0.8 |
| C[C@]12CC[C@@H]3c4ccc(OS(=O)(=O)O)cc4CC[C@H]3[C@@H]1CCC2=O [ESTRONE SULFURIC ACID] | inactive | 0 | inactive | 0 |
| COC(=O)c1ccccc1-c1c2ccc(=N)cc-2oc2cc(N)ccc12.Cl [RHODAMINE123] | Active | 0.1 | inactive | 1 |
| CCCCCCCCCCCC(=O)OCCN(CC)CC | inactive | 0.7 | Active | 0.2 |
| O=c1c(O)c(-c2ccc(O)c(O)c2)oc2cc(O)cc(O)c12 [QUERCETIN] | inactive | 0 | inactive | 0 |
| CCCCCCCCCCCC[N+](C)(C)CCCS(=O)(=O)[O-] | inactive | 0.8 | Active | 0.2 |
| Clc1ccc(COC(Cn2ccnc2)c2ccc(Cl)cc2Cl)c(Cl)c1 (stereo unspecified) [MICONAZOLE] | Active | 0.2 | inactive | 0.5 |
| COc1ccc2cc3[n+](cc2c1OC)CCc1cc2c(cc1-3)OCO2.[Cl-] [BERBERINE CHLORIDE] | Active | 0 | inactive | 0.5 |
| CC/C(=C(\c1ccccc1)c1ccc(OCCN(C)C)cc1)c1ccccc1 [TAMOXIFEN] | Active | 0.2 | inactive | 0.7 |
| CN[C@H]1C[C@@H](N)[C@H](O)[C@@H](O[C@@H]2O[C@H](CO)[C@H](O)[C@H]3O[C@@]4(O[C@H]23)O[C@H]([C@H](N)CO)[C@H](O)[C@H](O)[C@H]4O)[C@@H]1O | inactive | 0 | inactive | 0 |
| CO[C@H]1/C=C/O[C@@]2(C)Oc3c(C)c(O)c4c(O)c(c(/C=N/N5CCN(C)CC5)c(O)c4c3C2=O)NC(=O)/C(C)=C\C=C\[C@H](C)[C@H](O)[C@@H](C)[C@@H](O)[C@@H](C)[C@H](OC(C)=O)[C@@H]1C [RIFAMPIN] | inactive | 0 | inactive | 0 |
| CCN(CC)C(=S)SSC(=S)N(CC)CC | Active | 0.3 | Active | 0.4 |
| CN(C)C(=O)Nc1ccc(Cl)c(Cl)c1 [DCMU] | Active | 0.8 | Active | 0.8 |
| COc1c(C)c2c(c(O)c1C/C=C(\C)CCC(=O)O)C(=O)OC2 [MYCOPHENOLIC ACID] | inactive | 0 | inactive | 0 |
| COc1cc2c(c(OC)c1OC)-c1ccc(OC)c(=O)cc1[C@@H](NC(C)=O)CC2 [COLCHICINE] | inactive | 0 | inactive | 0 |
| COc1ccc(CCN(C)CCCC(C#N)(c2ccc(OC)c(OC)c2)C(C)C)cc1OC (stereo unspecified) | Active | 0 | inactive | 0.9 |
| CC(=O)N1CCN(c2ccc(OCC3COC(Cn4ccnc4)(c4ccc(Cl)cc4Cl)O3)cc2)CC1 (stereo unspecified) [KETOCONAZOLE] | Active | – | – | 1.4 |
| COC(=O)[C@@H]1[C@H]2C[C@H]3c4[nH]c5ccccc5c4CCN3C[C@@H]2CC[C@@H]1O.Cl [YOHIMBINE HYDROCHLORIDE] | Active | 1.3 | Active | 1.3 |
| CCCCCCCCCCCC(=O)OCCN(C)C | Active | 0.2 | inactive | 0.4 |
| CO[C@@H]1[C@@H](OC(N)=O)[C@@H](O)[C@H](Oc2ccc3c(O)c(NC(=O)c4ccc(O)c(CC=C(C)C)c4)c(=O)oc3c2C)OC1(C)C [NOVOBIOCIN] | inactive | 0 | inactive | 0 |
| CCC[C@@H]1C[C@@H](C(=O)N[C@@H]([C@H]2O[C@H](SC)[C@H](O)[C@@H](O)[C@H]2O)[C@@H](C)O)N(C)C1 [LINCOMYCIN] | inactive | 0 | inactive | 0 |

| Structure (SMILES) | Activity (Candida albicans [1]) | inhibition zone (IZ) (Saccharomyces cerevisiae [2]) [cm] | Activity (Candida albicans [3]) | inhibition zone (IZ) (Saccharomyces cerevisiae [4]) [cm] |
| --- | --- | --- | --- | --- |
| CC[C@]1(O)C[C@@H]2CN(CCc3c([nH]c4ccccc34)[C@@](C(=O)OC)(c3cc4c(cc3OC)N(C)[C@H]3[C@@](O)(C(=O)OC)[C@H](OC(C)=O)[C@]5(CC)C=CCN6CC[C@]43[C@@H]65)C2)C1 [VINBLASTINE] | Active | 0 | inactive | 0.6 |
| CN(C/C=C/C#CC(C)(C)C)Cc1cccc2ccccc12 [TERBINAFINE] | Active | 0 | inactive | 1.2 |
| CCC(C)n1ncn(-c2ccc(N3CCN(c4ccc(OCC5COC(Cn6cncn6)(c6ccc(Cl)cc6Cl)O5)cc4)CC3)cc2)c1=O (stereo unspecified) [ITRACONAZOLE] | Active | 0 | inactive | 1.1 |
| COc1cccc2c1C(=O)c1c(O)c3c(c(O)c1C2=O)C[C@@](O)(C(C)=O)C[C@@H]3O[C@H]1C[C@H](N)[C@H](O)[C@H](C)O1 [DAUNORUBICIN] | Active | 0 | inactive | 0.5 |
| CCC(=O)Nc1ccc(Cl)c(Cl)c1 [PROPANIL] | Active | 0.9 | Active | 0.3 |
| O=[N+]([O-])c1cc[n+]([O-])c2ccccc12 [4-NITROQUINOLINE-1-OXIDE] | Active | 0.4 | Active | 0.3 |
| Clc1ccccc1C(c1ccccc1)(c1ccccc1)n1ccnc1 [CLOTRIMAZOLE] | Active | 0 | inactive | 0.7 |
| CON(C)C(=O)Nc1ccc(Br)c(Cl)c1 [CHLORBROMURON] | Active | 0.1 | inactive | 0.9 |
| C[C@@H]1C[C@@H]([C@H](O)CC2CC(=O)NC(=O)C2)C(=O)[C@@H](C)C1 [CYCLOHEXIMIDE] | Active | 0.8 | Active | 1.2 |
| CC(=O)[C@H]1CC[C@H]2[C@@H]3CCC4=CC(=O)CC[C@]4(C)[C@H]3CC[C@]12C [PROGESTERONE] | inactive | 0 | inactive | 0 |
| Oc1cccc2cccnc12 [OXYQUINOLINE] | inactive | 0 | inactive | 0 |
| COc1ccc2c(c1)c(CC(=O)O)c(C)n2C(=O)c1ccc(Cl)cc1 [INDOMETHACIN] | inactive | 0 | inactive | 0 |
| COC(=O)C1=C(C)NC(C)=C(C(=O)OC)C1c1ccccc1[N+](=O)[O-] [NIFEDIPINE] | inactive | 0 | inactive | 0 |
| CCCCCCCCCCCCCC(=O)OCCN(C)C | inactive | 0 | inactive | 0 |
| Cc1c2oc3c(C)ccc(C(=O)N[C@@H]4C(=O)N[C@H](C(C)C)C(=O)N5CCC[C@H]5C(=O)N(C)CC(=O)N(C)[C@@H](C(C)C)C(=O)O[C@@H]4C)c3nc-2c(C(=O)N[C@@H]2C(=O)N[C@H](C(C)C)C(=O)N3CCC[C@H]3C(=O)N(C)CC(=O)N(C)[C@@H](C(C)C)C(=O)O[C@@H]2C)c(N)c1=O [DACTINOMYCIN] (I: T[dV]P[Sar][NMeV] / II: T[dV]P[Sar][NMeV]; ester I:1-I:C, II:1-II:C; linker I:N-II:N via Actinocin(1to9)) | inactive | 0.3 | Active | 0.1 |
| CCCCCCCCCCCCn1cncn1 | Active | 0.1 | inactive | 0.7 |
| c1c[nH]cn1 [IMIDAZOLE] | inactive | 0 | inactive | 0 |
| CCCCNC(=O)n1c(NC(=O)OC)nc2ccccc21 [BENOMYL] | Active | 0.4 | Active | 0.9 |
| COc1ccc2c3c([nH]c2c1)[C@H](C=C(C)C)N1C(=O)[C@@H]2CCCN2C(=O)[C@@H]1C3 [FUMITREMORGIN] | inactive | 0 | inactive | 0 |
| COc1cc2ncnc(Nc3ccc(F)c(Cl)c3)c2cc1OCCCN1CCOCC1 [GEFITINIB] | Active | 0.2 | inactive | – |
